Results on 16 compounds are retold here after patent US10221179B2, “Substituted pyrazoloquinazolinones and pyrroloquinazolinones as allosteric modulators of group II metabotropic glutamate receptors” (DOMAIN THERAPEUTICS, priority 2014, dated 2019).

The structures appear in SMILES notation.

T1 sequence (Q14416 19-872): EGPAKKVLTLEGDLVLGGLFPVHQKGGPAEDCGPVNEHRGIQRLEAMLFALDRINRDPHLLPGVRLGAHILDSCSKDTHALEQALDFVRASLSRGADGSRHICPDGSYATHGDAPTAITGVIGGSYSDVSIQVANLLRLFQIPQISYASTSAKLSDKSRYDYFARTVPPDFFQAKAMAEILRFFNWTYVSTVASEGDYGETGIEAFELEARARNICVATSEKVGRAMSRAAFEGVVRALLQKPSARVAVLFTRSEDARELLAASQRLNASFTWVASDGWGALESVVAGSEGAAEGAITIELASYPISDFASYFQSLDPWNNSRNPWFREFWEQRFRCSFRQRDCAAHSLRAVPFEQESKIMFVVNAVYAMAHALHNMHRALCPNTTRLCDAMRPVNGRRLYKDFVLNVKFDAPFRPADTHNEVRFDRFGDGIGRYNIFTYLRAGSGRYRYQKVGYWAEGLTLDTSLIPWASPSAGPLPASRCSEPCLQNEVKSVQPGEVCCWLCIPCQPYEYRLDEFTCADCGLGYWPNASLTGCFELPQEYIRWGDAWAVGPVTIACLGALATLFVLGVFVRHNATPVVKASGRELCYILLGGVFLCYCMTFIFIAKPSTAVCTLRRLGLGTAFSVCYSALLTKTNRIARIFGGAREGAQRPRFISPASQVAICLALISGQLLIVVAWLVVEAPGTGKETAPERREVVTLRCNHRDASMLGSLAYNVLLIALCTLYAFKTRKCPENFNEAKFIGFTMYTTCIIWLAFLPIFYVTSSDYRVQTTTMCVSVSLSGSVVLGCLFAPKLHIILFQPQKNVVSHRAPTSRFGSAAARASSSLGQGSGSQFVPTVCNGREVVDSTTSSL

The first series concerns the target T1, human mGluR2 (hmGluR2) (Homo sapiens, UniProt Q14416).
T1 construct: expressed in transfected cells; host or cells: HEK-293 cells, transient co-transfection by electroporation
Put plainly: Ca++ functional assay, human mGluR2 transiently over-expressed in HEK-293 cells (agonist and negative allosteric modulator modes). Type of series: cell-based. The settings on record: glutamate at EC80, intracellular calcium (Fluo4AM), read-out: hmGluR2 negative allosteric modulator activity IC50. How it is done:
Example 127: Human mGluR2 and mGluR3 Evaluation Using Ca^++ Functional Assay
Examples of the present invention were tested successively for their agonist and negative allosteric modulator activities on human mGluR2 (hmGluR2) and mGluR3 (hmGluR3) transiently over-expressed in HEK-293 cells.
Cell Culture and Transfection
HEK-293 cells are maintained in Modified Eagle's Medium supplemented with 10% Foetal Calf Serum, 1% Penicillin/Streptomycin and 1% non-essential amino acids at 37° C./5% CO2.
Cells are co-transfected by electroporation with four DNA plasmids encoding hmGluR2 or hmGluR3, a chimeric G protein allowing redirection of the activation signal to intracellular calcium pathway (Brabet I et al., Neuropharmacology 37(8), 1043-51, 1998), and two glutamate transporters minimizing receptor desensitization by endogenous glutamate. After transfection, cells are cultured for 24 h at 37° C./5% CO2.
Calcium Assay IC50 Determination
Receptor activity is detected by changes in intracellular calcium measured using the fluorescent Ca^2+ sensitive dye, Fluo4AM (Molecular Probes).
On the day of the assay, culture medium is aspirated and replaced during 3 hours by medium without serum supplemented with 1% Glutamax, 1% Penicillin/Streptomycin and 1% non-essential amino acids. Then, cells are washed with freshly prepared buffer B (HBSS 1×(PAA), Hepes 20 mM, MgSO4-7H2O 1 mM, Na2CO3 3.3 mM, CaCl2-2H2O 1.3 mM, 0.1% BSA, Probenecid 2.5 mM) and loaded at 37° C. in 5% CO2 for 1.5 hours with buffer B containing 1 μM Fluo4AM, 0.1 mg/mL Pluronic Acid, 7 μg/mL Glutamate Pyruvate Transaminase and 2 mM sodium pyruvate. Afterwards cells are washed twice with buffer B. Then cells are detached using StemPro Accutase (Fischer Scientific), resuspended in buffer B and seeded in 384 well plate at a density of 30,000 cells per well. Addition of compounds and intracellular Ca^2+ measurements (excitation 485 nm, emission 525 nm) are performed by the fluorescence microplate reader FLIPRTetra (Molecular Devices).
Agonist and negative allosteric modulator activities of compounds are consecutively evaluated on the same cell plate. […] Then, cells are stimulated by an EC80 glutamate concentration and fluorescence is recorded for additional 3 minutes. EC80 glutamate concentration is the concentration giving 80% of the maximal glutamate response. Agonist or negative allosteric modulator activity(ies) are evaluated in comparison to basal signals evoked by buffer B or EC80 glutamate alone, respectively.
For IC50 determination, a dose-response test is performed using 20 concentrations (ranging over 6 logs) of each compound. Dose-response curves are fitted using the sigmoidal dose-response (variable slope) analysis in GraphPad Prism program (Graph Pad Inc) and IC50 of negative allosteric modulator activity is calculated. Dose-response experiments are performed in duplicate, two times independently.
(A change in cytosolic calcium serves as a functional read-out for many receptors and channels.)
As a reminder, the IC50 is the midpoint of a concentration-inhibition curve. Regarding `Cc1cc(-c2cc3n(C)c(=O)c4ccccc4n3n2)ccn1` [Example 2, 4-methyl 2-(2-methyl-pyridin-4-yl)-4H-pyrazolo[1,5-a]quinazolin-5-one], the IC50 was < 1000 nM.

Regarding `C=C(C)c1cc(-c2cc3n(C)c(=O)c4ccccc4n3n2)ccn1` [Example 10, 2-(2-Isopropenyl-pyridin-4-yl)-4-methyl-4H-pyrazolo[1,5-a]quinazolin-5-one], the IC50 was < 1000 nM.

For `Cn1c(=O)c2cc(Cl)ccc2n2nc(-c3ccnc(C(F)(F)F)c3)cc12` [Example 35], the IC50 was < 1000 nM.

With `Cn1c(=O)c2cc(Br)ccc2n2nc(-c3ccnc(C(F)(F)F)c3)cc12` [Example 39], the IC50 is < 1000 nM.

Consider `Cn1c(=O)c2ccc(Cl)cc2n2nc(-c3ccnc(C(F)(F)F)c3)cc12` [Example 56, 8-Chloro-4-methyl-2-(2-trifluoromethyl-pyridin-4-yl)-4H-pyrazolo[1,5-a]quinazolin-5-one], for which the IC50 was < 1000 nM.

Regarding `Cn1c(=O)c2ccc(Br)cc2n2nc(-c3ccnc(C(F)(F)F)c3)cc12` [Example 58, 8-Bromo-4-methyl-2-(2-trifluoromethyl-pyridin-4-yl)-4H-pyrazolo[1,5-a]quinazolin-5-one], the IC50 is < 1000 nM.

As for `CN(C)C(=O)c1ccc2c(=O)n(C)c3cc(-c4ccnc(C(F)(F)F)c4)nn3c2c1` [Example 79, 4-Methyl-5-oxo-2-(2-trifluoromethyl-pyridin-4-yl)-4,5-dihydro-pyrazolo[1,5-a]quinazoline-8-carboxylic Acid Dimethylamide], the IC50 was < 1000 nM.

On to `CNc1cc2c(=O)n(C)c3cc(-c4ccnc(C(F)(F)F)c4)nn3c2cc1OC` [Example 94, 8-Methoxy-4-methyl-7-methylamino-2-(2-trifluoromethyl-pyridin-4-yl)-4H-pyrazolo[1,5-a]quinazolin-5-one], for which the 50% inhibitory concentration (IC50) is < 1000 nM.

As for `Cn1c(=O)c2cc(Cl)ccc2n2nc(-c3ccnc(Cl)c3)cc12` [Example 95, 7-Chloro-2-(2-chloro-pyridin-4-yl)-4-methyl-4H-pyrazolo[1,5-a]quinazolin-5-one], the IC50 was < 1000 nM.

Regarding `Cn1c(=O)c2cc(Cl)ccc2n2nc(-c3ccnc(C4CC4)c3)cc12` [Example 96], the IC50 is < 1000 nM.

Take `Cn1c(=O)c2cc(Cl)ccc2n2nc(-c3ccnc(OCC(F)(F)F)c3)cc12` [Example 98, 7-Chloro-4-methyl-2-[2-(2,2,2-trifluoro-ethoxy)-pyridin-4-yl]-4H-pyrazolo[1,5-a]quinazolin-5-one]: the IC50 is < 1000 nM.

As for `COc1ccc2c(c1)c(=O)n(C)c1cc(-c3ccnc(Cl)c3)nn21` [Example 99, 2-(2-Chloro-pyridin-4-yl)-7-methoxy-4-methyl-4H-pyrazolo[1,5-a]quinazolin-5-one], the IC50 was < 1000 nM.

Tested on in another series: not given
Assay: not given
Settings: not given
By melting point is commonly meant the temperature, or range, at which the solid turns liquid. `Cn1c(=O)c2ccc(F)cc2n2nc(-c3ccnc(C4CC4)c3)cc12` [Example 112, 2-(2-Cyclopropyl-pyridin-4-yl)-8-fluoro-4-methyl-4H-pyrazolo[1,5-a]quinazolin-5-one] gave a melting point of 230 to 235 °C.

`Cn1c(=O)c2cc(F)c(N3CCC34CCC(CO)CC4)cc2n2nc(-c3ccnc(C(F)(F)F)c3)cc12` (stereo not shown) [Example 123, 7-Fluoro-8-(7-hydroxymethyl-1-aza-spiro[3.5]non-1-yl)-4-methyl-2-(2-trifluoromethyl-pyridin-4-yl)-4H-pyrazolo[1,5-a]quinazolin-5-one]: the melting point is > 250 °C.

Turning to `Cn1c(=O)c2ccc(N3CCCC(O)C3)cc2n2nc(-c3ccnc(C(F)(F)F)c3)cc12` (stereo not shown) [Example 124, 8-(3-Hydroxy-piperidin-1-yl)-4-methyl-2-(2-trifluoromethyl-pyridin-4-yl)-4H-pyrazolo[1,5-a]quinazolin-5-one], the melting point was > 250 °C.

As to `Cn1c(=O)c2ccc(NCC(C)(C)O)cc2n2nc(-c3ccnc(C(F)(F)F)c3)cc12` [Example 126, 8-(2-Hydroxy-2-methyl-propylamino)-4-methyl-2-(2-trifluoromethyl-pyridin-4-yl)-4H-pyrazolo[1,5-a]quinazolin-5-one], the melting point is > 250 °C.
